# Data from PubChem BioAssay (NCI).
#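 Protocol summary: plate cells (96-well), add compound at 5 concentrations, incubate 48 h, interpolate endpoints linearly. The concentration for 50% growth inhibition is given as GI50. The concentration for full growth arrest is given as TGI.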
# What was measured:
# Experiment in all cases: DTP human tumour cell line panel, 48 h
# BT-549 breast = test system: BT-549 breast
# HL-60(TB) leukemia = test system: HL-60(TB) leukemia
# HT29 colon = test system: HT29 colon
# KM12 colon = test system: KM12 colon
# MDA-MB-231 breast = test system: MDA-MB-231 breast
# MDA-MB-435 = test system: MDA-MB-435
# OVCAR-5 ovarian = test system: OVCAR-5 ovarian
# SNB-75 CNS = test system: SNB-75 CNS
# U251 CNS = test system: U251 CNS
# UO-31 renal = test system: UO-31 renal
smiles,measurement,setting,value
OC1(c2ccc(Cl)cc2)c2ccccc2C2=NCc3ccccc3CN21 (stereo not given),TGI,BT-549 breast,44.7 µM
same,TGI,HL-60(TB) leukemia,17.4 µM
same,TGI,HT29 colon,27.8 µM
same,TGI,KM12 colon,11.6 µM
same,TGI,MDA-MB-231 breast,37.9 µM
same,TGI,MDA-MB-435,22.7 µM
same,TGI,OVCAR-5 ovarian,26 µM
same,TGI,SNB-75 CNS,19.4 µM
same,TGI,U251 CNS,25.1 µM
same,TGI,UO-31 renal,22.3 µM
CCOC(=O)c1ccc(NC(NC(=O)CC)(C(F)(F)F)C(F)(F)F)cc1,TGI,BT-549 breast,> 100 µM
same,TGI,HL-60(TB) leukemia,> 100 µM
same,TGI,HT29 colon,> 100 µM
same,TGI,KM12 colon,> 100 µM
same,TGI,MDA-MB-231 breast,> 100 µM
same,TGI,MDA-MB-435,> 100 µM
same,TGI,OVCAR-5 ovarian,> 100 µM
same,TGI,SNB-75 CNS,> 100 µM
same,TGI,U251 CNS,> 100 µM
same,TGI,UO-31 renal,> 100 µM
CC12CCC(C1)C(C)(C)C2OC(=O)c1ccccc1C(=O)O (stereo not given),TGI,BT-549 breast,> 100 µM
same,TGI,HL-60(TB) leukemia,> 100 µM
same,TGI,HT29 colon,> 100 µM
same,TGI,KM12 colon,> 100 µM
same,TGI,MDA-MB-231 breast,> 100 µM
same,TGI,MDA-MB-435,> 100 µM
same,TGI,OVCAR-5 ovarian,> 100 µM
same,TGI,SNB-75 CNS,> 100 µM
same,TGI,U251 CNS,> 100 µM
same,TGI,UO-31 renal,> 100 µM
N#CI1OC(C(F)(F)F)(C(F)(F)F)c2ccccc21,TGI,BT-549 breast,40.9 µM
same,TGI,HL-60(TB) leukemia,> 100 µM
same,TGI,HT29 colon,40.8 µM
same,TGI,KM12 colon,35.5 µM
same,TGI,MDA-MB-231 breast,54.7 µM
same,TGI,MDA-MB-435,38.4 µM
same,TGI,OVCAR-5 ovarian,36.6 µM
same,TGI,SNB-75 CNS,32.4 µM
same,TGI,U251 CNS,52.5 µM
same,TGI,UO-31 renal,28.6 µM
CC(C)=CCC/C(C)=C/CC/C(C)=C/CSc1ccc(Cl)cc1C(=O)O,TGI,BT-549 breast,37.5 µM
same,TGI,HL-60(TB) leukemia,50.8 µM
same,TGI,HT29 colon,37.4 µM
same,TGI,KM12 colon,32.3 µM
same,TGI,MDA-MB-231 breast,63.4 µM
same,TGI,MDA-MB-435,42.2 µM
same,TGI,OVCAR-5 ovarian,36.9 µM
same,TGI,SNB-75 CNS,34.3 µM
same,TGI,U251 CNS,34.7 µM
same,TGI,UO-31 renal,31.4 µM
Cc1ccc(NC(=O)CC(=O)N2N=C(c3ccccc3)C(N=Nc3ccc(S(=O)(=O)CCOS(=O)(=O)O)cc3)C2=O)cc1 (stereo not given),TGI,BT-549 breast,> 100 µM
same,TGI,HL-60(TB) leukemia,> 100 µM
same,TGI,HT29 colon,> 100 µM
same,TGI,KM12 colon,> 100 µM
same,TGI,MDA-MB-231 breast,> 100 µM
same,TGI,MDA-MB-435,> 100 µM
same,TGI,OVCAR-5 ovarian,> 100 µM
same,TGI,SNB-75 CNS,> 100 µM
same,TGI,U251 CNS,> 100 µM
same,TGI,UO-31 renal,> 100 µM
C=CCc1cccc2cc(C(=O)Nc3nc(C45CC6CC(CC(C6)C4)C5)cs3)c(=O)oc12,TGI,BT-549 breast,> 100 µM
same,TGI,HL-60(TB) leukemia,> 100 µM
same,TGI,HT29 colon,> 100 µM
same,TGI,KM12 colon,> 100 µM
same,TGI,MDA-MB-231 breast,62.1 µM
same,TGI,MDA-MB-435,> 100 µM
same,TGI,OVCAR-5 ovarian,> 100 µM
same,TGI,SNB-75 CNS,> 100 µM
same,TGI,U251 CNS,41.9 µM
same,TGI,UO-31 renal,25.2 µM
O=C(CCC(=O)OCC1OC(O)(CC2OC(CO)C(O)C(O)C2O)C(O)C1O)OCc1ccccc1 (stereo not given),TGI,BT-549 breast,> 100 µM
same,TGI,HL-60(TB) leukemia,> 100 µM
same,TGI,HT29 colon,> 100 µM
same,TGI,KM12 colon,> 100 µM
same,TGI,MDA-MB-231 breast,> 100 µM
same,TGI,MDA-MB-435,> 100 µM
same,TGI,OVCAR-5 ovarian,> 100 µM
same,TGI,SNB-75 CNS,> 100 µM
same,TGI,U251 CNS,> 100 µM
same,TGI,UO-31 renal,> 100 µM
Cc1ccc(CC(=O)Nc2ccc(NC(=O)CNC(=O)/C=C/c3ccc(-c4ccccc4)cc3)cc2C(=O)c2ccccc2)cc1,TGI,BT-549 breast,24 µM
same,TGI,HL-60(TB) leukemia,20.7 µM
same,TGI,HT29 colon,2.99 µM
same,TGI,KM12 colon,14.5 µM
same,TGI,MDA-MB-231 breast,9.21 µM
same,TGI,MDA-MB-435,16.1 µM
same,TGI,OVCAR-5 ovarian,23.1 µM
same,TGI,U251 CNS,8.67 µM
same,TGI,UO-31 renal,24.7 µM
O=C(c1ccccc1)n1[nH]c(=O)n(-c2ccc(Cl)cc2)c1=O,TGI,BT-549 breast,> 100 µM
same,TGI,HL-60(TB) leukemia,> 100 µM
same,TGI,HT29 colon,> 100 µM
same,TGI,KM12 colon,> 100 µM
same,TGI,MDA-MB-231 breast,> 100 µM
same,TGI,MDA-MB-435,> 100 µM
same,TGI,OVCAR-5 ovarian,> 100 µM
same,TGI,SNB-75 CNS,> 100 µM
same,TGI,U251 CNS,> 100 µM
same,TGI,UO-31 renal,> 100 µM
OCCNc1nc2c(N3CCCC3)nc(N3CCNCC3)nc2nc1NCc1ccccc1,TGI,BT-549 breast,30.8 µM
same,TGI,HL-60(TB) leukemia,32.8 µM
same,TGI,HT29 colon,21.7 µM
same,TGI,KM12 colon,25.5 µM
same,TGI,MDA-MB-231 breast,29.4 µM
same,TGI,MDA-MB-435,25.1 µM
same,TGI,OVCAR-5 ovarian,24.7 µM
same,TGI,SNB-75 CNS,26.8 µM
same,TGI,U251 CNS,23.3 µM
same,TGI,UO-31 renal,28.7 µM
COC1=C(OC)C(=O)C(Cc2c(Cl)nc3n2CCS3)=C(C)C1=O,TGI,BT-549 breast,27.5 µM
same,TGI,HL-60(TB) leukemia,6.4 µM
same,TGI,HT29 colon,35.6 µM
same,TGI,KM12 colon,30.8 µM
same,TGI,MDA-MB-231 breast,27.5 µM
same,TGI,MDA-MB-435,29.2 µM
same,TGI,OVCAR-5 ovarian,36 µM
same,TGI,U251 CNS,35.2 µM
same,TGI,UO-31 renal,28.3 µM
O=C(O)C(CO)NC(=O)C1C(C(=O)O)C(c2ccccc2[N+](=O)[O-])C=C(c2ccco2)N1c1ccncc1 (stereo not given),TGI,BT-549 breast,22.8 µM
same,TGI,HL-60(TB) leukemia,> 100 µM
same,TGI,HT29 colon,3.66 µM
same,TGI,KM12 colon,3.35 µM
same,TGI,MDA-MB-231 breast,7.56 µM
same,TGI,MDA-MB-435,16.8 µM
same,TGI,OVCAR-5 ovarian,25.4 µM
same,TGI,SNB-75 CNS,22.3 µM
same,TGI,U251 CNS,6.21 µM
same,TGI,UO-31 renal,10.4 µM
O=[N+]([O-])c1ccc(Cl)cc1N/N=C/c1cccs1,TGI,BT-549 breast,> 100 µM
same,TGI,HL-60(TB) leukemia,> 100 µM
same,TGI,HT29 colon,> 100 µM
same,TGI,KM12 colon,> 100 µM
same,TGI,MDA-MB-231 breast,> 100 µM
same,TGI,MDA-MB-435,> 100 µM
same,TGI,SNB-75 CNS,> 100 µM
same,TGI,U251 CNS,> 100 µM
same,TGI,UO-31 renal,> 100 µM
Clc1cccc(N=C/C=C/Nc2cccc(Cl)c2)c1,TGI,BT-549 breast,33.2 µM
same,TGI,HL-60(TB) leukemia,39.9 µM
same,TGI,HT29 colon,34 µM
same,TGI,KM12 colon,27.1 µM
same,TGI,MDA-MB-231 breast,29.4 µM
same,TGI,MDA-MB-435,28.9 µM
same,TGI,OVCAR-5 ovarian,59.9 µM
same,TGI,U251 CNS,30.3 µM
same,TGI,UO-31 renal,34.2 µM
Cc1ccc(Nc2nc(NS(=O)(=O)c3cc(C)c(Cl)cc3S)n[nH]2)cc1,TGI,BT-549 breast,> 100 µM
same,TGI,HL-60(TB) leukemia,> 100 µM
same,TGI,HT29 colon,> 100 µM
same,TGI,KM12 colon,> 100 µM
same,TGI,MDA-MB-231 breast,> 100 µM
same,TGI,MDA-MB-435,> 100 µM
same,TGI,OVCAR-5 ovarian,> 100 µM
same,TGI,SNB-75 CNS,> 100 µM
same,TGI,U251 CNS,> 100 µM
same,TGI,UO-31 renal,> 100 µM
CCOC(=O)O/N=C1/C(c2c(O)[nH]c3ccccc23)=Nc2ccccc21,TGI,BT-549 breast,31.7 µM
same,TGI,HL-60(TB) leukemia,24.1 µM
same,TGI,HT29 colon,46.7 µM
same,TGI,KM12 colon,13.8 µM
same,TGI,MDA-MB-231 breast,63 µM
same,TGI,MDA-MB-435,17.3 µM
same,TGI,OVCAR-5 ovarian,56.2 µM
same,TGI,SNB-75 CNS,11.4 µM
same,TGI,U251 CNS,> 100 µM
same,TGI,UO-31 renal,40.6 µM
Cc1[nH]c(=O)[nH]c(=O)c1C(=O)N(CCO)Cc1ccccc1,TGI,BT-549 breast,> 100 µM
same,TGI,HL-60(TB) leukemia,> 100 µM
same,TGI,HT29 colon,> 100 µM
same,TGI,KM12 colon,> 100 µM
same,TGI,MDA-MB-231 breast,> 100 µM
same,TGI,MDA-MB-435,> 100 µM
same,TGI,OVCAR-5 ovarian,> 100 µM
same,TGI,U251 CNS,> 100 µM
same,TGI,UO-31 renal,> 100 µM
CC(C)(C)OC(=O)NCCNC(=O)CN(CC(=O)O)C1CCCCC1N(CC(=O)O)CC(=O)O (stereo not given),TGI,BT-549 breast,> 100 µM
same,TGI,HL-60(TB) leukemia,> 100 µM
same,TGI,HT29 colon,> 100 µM
same,TGI,KM12 colon,> 100 µM
same,TGI,MDA-MB-231 breast,> 100 µM
same,TGI,MDA-MB-435,> 100 µM
same,TGI,OVCAR-5 ovarian,> 100 µM
same,TGI,SNB-75 CNS,> 100 µM
same,TGI,U251 CNS,> 100 µM
same,TGI,UO-31 renal,> 100 µM
COC1CCC(n2c([C@@H]3CCCC(=O)N3c3ccc(F)c(F)c3)nc3cc(-c4c(C)noc4C)ccc32)CC1 (stereo not given in full),GI50,BT-549 breast,10.3 µM
same,TGI,BT-549 breast,27.2 µM
same,GI50,HL-60(TB) leukemia,851 nM
same,TGI,HL-60(TB) leukemia,36.4 µM
same,GI50,HT29 colon,2540 nM
same,TGI,HT29 colon,25.2 µM
same,GI50,KM12 colon,14 µM
same,TGI,KM12 colon,30.4 µM
same,GI50,MDA-MB-231 breast,8.46 µM
same,TGI,MDA-MB-231 breast,26 µM
same,GI50,MDA-MB-435,8.01 µM
same,TGI,MDA-MB-435,82.7 µM
same,GI50,OVCAR-5 ovarian,17.2 µM
same,TGI,OVCAR-5 ovarian,> 100 µM
same,GI50,SNB-75 CNS,10.8 nM
same,TGI,SNB-75 CNS,0.961 µM
same,GI50,U251 CNS,10.2 µM
same,TGI,U251 CNS,23.8 µM
same,GI50,UO-31 renal,1640 nM
same,TGI,UO-31 renal,14.5 µM
